Reference: PMC13026664, “Transcriptional Activation of Estrogen Receptor-Alpha and Estrogen Receptor-Beta from Elephant Shark (Callorhynchus milii)” (Genes, 2026)

Tests used:
[1] = test system: amphioxus steroid receptor (SR); conditions: cited from earlier work
[2] = target: T1, elephant shark ERb (Callorhinchus milii, UniProt A0A1V1FJE9); experiment: cell-based
T1 sequence (A0A1V1FJE9 1-580): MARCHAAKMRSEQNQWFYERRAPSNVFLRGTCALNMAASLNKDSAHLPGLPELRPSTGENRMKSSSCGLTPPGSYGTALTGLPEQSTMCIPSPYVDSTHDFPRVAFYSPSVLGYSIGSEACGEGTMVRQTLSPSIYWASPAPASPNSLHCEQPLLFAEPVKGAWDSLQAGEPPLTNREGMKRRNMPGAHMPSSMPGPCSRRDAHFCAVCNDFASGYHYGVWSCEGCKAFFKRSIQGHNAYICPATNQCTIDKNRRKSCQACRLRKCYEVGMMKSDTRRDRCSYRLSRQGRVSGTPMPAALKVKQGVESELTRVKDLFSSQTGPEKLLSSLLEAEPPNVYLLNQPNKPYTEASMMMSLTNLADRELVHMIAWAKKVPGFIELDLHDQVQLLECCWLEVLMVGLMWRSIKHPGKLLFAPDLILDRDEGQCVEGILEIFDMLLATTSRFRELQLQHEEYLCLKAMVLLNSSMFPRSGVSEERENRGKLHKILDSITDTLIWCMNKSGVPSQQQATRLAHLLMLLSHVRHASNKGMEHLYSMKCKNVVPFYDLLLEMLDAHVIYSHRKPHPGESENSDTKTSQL
Method: (§1) Full-length estrogen receptors were amplified using specific forward and reverse primers designed at start and stop codons and cloned into the mammalian expression vector pcDNA3.1 (Invitrogen). In addition, ERs with a FLAG-tag added to the N-terminus were also prepared by PCR. A reporter construct, pGL4.23-4xERE, was produced by subcloning of oligonucleotides having 4xERE into the KpnI-HindIII site of pGL4.23 vector (Promega, Madison, WI, USA). All cloned DNA sequences were verified by sequencing.
(§2) Reporter gene assays using full-length ERs were performed in Human Embryonic Kidney 293 cells (HEK293 cells). HEK293 cells were seeded in 24-well plates at 5 × 10^4 cells/well in phenol-red-free Dulbecco’s modified Eagle’s medium with 10% charcoal/dextran-treated fetal bovine serum. After 24 h, the cells were transfected with 400 ng of reporter construct, 25 ng of pRL-TK (as an internal control to normalize the variation in transfection efficiency; contains the Renilla reniformis luciferase gene with the herpes simplex virus thymidine kinase promoter), and 200 ng of pcDNA3.1-estrogen receptor using polyethylenimine (PEI). After 5 h of incubation, ligands were applied to the medium at various concentrations. After an additional 43 h, the cells were collected, and the luciferase activity of the cells was measured with the Dual-Luciferase Reporter Assay System. Promoter activity was calculated as firefly (Photinus pyralis) luciferase activity/sea pansy (R. reniformis) luciferase activity. […] All experiments were performed in triplicate.
(§3) Elephant shark ERs were transfected into HEK293 cells with an ERE-driven reporter gene. […] Data are expressed as a ratio of a vehicle (DMSO) to other test chemicals. Each point represents the mean of triplicate determinations, and vertical bars represent the mean ± SEM.

[3] = test system: Atlantic sea lamprey ER; conditions: cited from earlier work
[4] = test system: elephant shark ERa4; experiment: Transcriptional activation of ERa4; assay type: cell-based, elephant shark (Callorhynchus milii); conditions: ERa4 has a deletion in the DNA-binding domain
Method: as §1
Reporter gene assays using full-length ERs were performed in Human Embryonic Kidney 293 cells (HEK293 cells). HEK293 cells were seeded in 24-well plates at 5 × 10^4 cells/well in phenol-red-free Dulbecco’s modified Eagle’s medium with 10% charcoal/dextran-treated fetal bovine serum. […] After an additional 43 h, the cells were collected, and the luciferase activity of the cells was measured with the Dual-Luciferase Reporter Assay System. Promoter activity was calculated as firefly (Photinus pyralis) luciferase activity/sea pansy (R. reniformis) luciferase activity. The values shown are mean ± SEM from three separate experiments, and dose–response data, which were used to calculate the half-maximal response (EC50) for each steroid, were analyzed using GraphPad Prism (Version 11, GraphPad Software, Inc., San Diego, CA, USA). […]

[5] = test system: amphioxus ER; conditions: cited from earlier work
[6] = target: T2, elephant shark ERa1 (Callorhinchus milii, UniProt A0A1V1FR36); experiment: cell-based
T2 sequence (A0A1V1FR36 1-596): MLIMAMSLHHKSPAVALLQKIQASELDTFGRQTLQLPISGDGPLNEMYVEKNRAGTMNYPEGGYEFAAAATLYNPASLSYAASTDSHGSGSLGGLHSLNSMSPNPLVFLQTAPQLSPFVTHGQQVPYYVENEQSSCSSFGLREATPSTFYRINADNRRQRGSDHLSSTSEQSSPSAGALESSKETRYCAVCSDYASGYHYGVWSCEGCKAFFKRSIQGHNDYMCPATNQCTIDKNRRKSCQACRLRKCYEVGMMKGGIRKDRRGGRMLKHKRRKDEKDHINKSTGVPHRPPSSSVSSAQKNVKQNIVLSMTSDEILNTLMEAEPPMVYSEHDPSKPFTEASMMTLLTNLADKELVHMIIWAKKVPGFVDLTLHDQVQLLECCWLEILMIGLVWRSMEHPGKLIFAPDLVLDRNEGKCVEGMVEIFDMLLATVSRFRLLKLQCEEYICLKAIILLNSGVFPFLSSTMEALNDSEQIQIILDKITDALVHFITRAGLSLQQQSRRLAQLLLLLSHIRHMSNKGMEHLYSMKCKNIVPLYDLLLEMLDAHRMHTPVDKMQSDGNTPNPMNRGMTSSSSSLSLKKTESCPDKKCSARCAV
Method: as §1, §2, §3

[7] = target: T3, elephant shark ERa3 (Callorhinchus milii, UniProt A0A1V1FR36)
T3 sequence (A0A1V1FR36 1-596): T2 sequence (A0A1V1FR36 1-596)
Method: as §1, §2, §3

[8] = target: T4, elephant shark ERa2 (Callorhinchus milii, UniProt A0A1V1FR36)
T4 sequence (A0A1V1FR36 1-596): T2 sequence (A0A1V1FR36 1-596)
Method: as §1, §2, §3

[9] = HEK293, 43 h, read-out: Fold-Activation (±SEM)

| SMILES | Transcriptional activation of amphioxus SR [1] | EC50 [2] | Activation of Atlantic sea lamprey ER [3] | Transcriptional activation of ERa4 [4] | Binding to amphioxus ER [5] | EC50 [6] | Ratio (fold-activation of each estrogen divided by the value of E2) ([6]; ERa1 in HEK293, 10 nM) | fold induction at 0.01 µM [6, 9] | Ratio (fold-activation of each estrogen divided by the value of E2) ([2]; ERb in HEK293, 10 nM) | fold induction at 0.01 µM [2, 9] | Ratio (fold-activation of each estrogen divided by the value of E2) ([7]; ERa3 in HEK293, 10 nM) | Fold-Activation (±SEM) ([7]; ERa3 in HEK293, based on the 10 nM values, ratio to vehicle (DMSO), 2580 min) | EC50 ([7]; read-out: EC50 for transcriptional activation, ERa3 in HEK293, 4xERE luciferase reporter) | Ratio (fold-activation of each estrogen divided by the value of E2) ([8]; ERa2 in HEK293, 10 nM) | Fold-Activation (±SEM) ([8]; ERa2 in HEK293, based on the 10 nM values, ratio to vehicle (DMSO), 2580 min) | EC50 ([8]; read-out: EC50 for transcriptional activation, ERa2 in HEK293, 4xERE luciferase reporter) |
| --- | --- | --- | --- | --- | --- | --- | --- | --- | --- | --- | --- | --- | --- | --- | --- | --- |
| C[C@]12CC[C@@H]3c4ccc(O)cc4CC[C@H]3[C@@H]1CCC2=O [E1, Estrone] | transcriptional activators | 0.14 nM | activated |  |  |  |  |  |  |  |  |  |  |  |  |  |
| C[C@]12CC[C@@H]3c4ccc(O)cc4CC[C@H]3[C@@H]1CC[C@@H]2O [E2, 17b-estradiol] | transcriptional activators |  | activated | lack of transcriptional activation | does not bind |  |  |  |  |  |  |  |  |  |  |  |
| C[C@]12CC[C@@H]3c4ccc(O)cc4CC[C@H]3[C@@H]1C[C@@H](O)[C@@H]2O [E3, estriol] |  | 0.02 nM |  |  |  | 0.2 nM | 0.95 | 1.57 | 1.08 | 3.49 | 1.07 | 1.87 (±0.15) | 0.29 nM | 1.02 | 1.82 (±0.13) | 0.31 nM |
